{"source": "ChEMBL document CHEMBL2375352", "about": "“Spirostanoids with 1,4-dien-3-one or 3β,7α-diol-5,6-ene moieties from Solanum violaceum” (Bioorg Med Chem Lett, 2013)", "key": {"MCF7": {"system": "MCF7", "experiment": "Cytotoxicity against human MCF7 cells", "type": "functional, cell-based"}, "MDA-MB-231": {"system": "MDA-MB-231", "experiment": "Cytotoxicity against human MDA-MB-231 cells", "type": "functional, cell-based"}, "[1]": {"experiment": "Cytotoxicity against human Hep3B cells", "type": "functional, cell-based, Hep 3B2"}, "HepG2": {"system": "HepG2", "experiment": "Cytotoxicity against human HepG2 cells", "type": "functional, cell-based"}, "A549": {"system": "A549", "experiment": "Cytotoxicity against human A549 cells", "type": "functional, cell-based"}}, "data": [{"smiles": "CC[C@H](/C=C/[C@@H](C)[C@H]1CC[C@H]2[C@@H]3C(=O)C=C4C[C@@H](O)CC[C@]4(C)[C@H]3CC[C@]12C)C(C)C", "values": [{"measurement": "IC50", "setting": "MCF7", "result": "> 20", "unit": "µg/mL"}, {"measurement": "IC50", "setting": "MDA-MB-231", "result": "> 20", "unit": "µg/mL"}, {"measurement": "IC50", "setting": "[1]", "result": "> 20", "unit": "µg/mL"}, {"measurement": "IC50", "setting": "HepG2", "result": "> 20", "unit": "µg/mL"}, {"measurement": "IC50", "setting": "A549", "result": "> 20", "unit": "µg/mL"}]}, {"smiles": "CC[C@H](CC[C@@H](C)[C@H]1CC[C@H]2[C@@H]3C(=O)C=C4C[C@@H](O)CC[C@]4(C)[C@H]3CC[C@]12C)C(C)C", "values": [{"measurement": "IC50", "setting": "MCF7", "result": "> 20", "unit": "µg/mL"}, {"measurement": "IC50", "setting": "MDA-MB-231", "result": "> 20", "unit": "µg/mL"}, {"measurement": "IC50", "setting": "[1]", "result": "> 20", "unit": "µg/mL"}, {"measurement": "IC50", "setting": "HepG2", "result": "> 20", "unit": "µg/mL"}, {"measurement": "IC50", "setting": "A549", "result": "> 20", "unit": "µg/mL"}]}, {"smiles": "C[C@H]1CC[C@@]2(OC1)O[C@H]1C[C@H]3[C@@H]4CC=C5C[C@@H](O)CC[C@]5(C)[C@H]4CC[C@]3(C)[C@H]1[C@@H]2C", "values": [{"measurement": "IC50", "setting": "MCF7", "result": "> 20", "unit": "µg/mL"}, {"measurement": "IC50", "setting": "MDA-MB-231", "result": "> 20", "unit": "µg/mL"}, {"measurement": "IC50", "setting": "[1]", "result": "> 20", "unit": "µg/mL"}, {"measurement": "IC50", "setting": "HepG2", "result": "> 20", "unit": "µg/mL"}, {"measurement": "IC50", "setting": "A549", "result": "> 20", "unit": "µg/mL"}]}, {"smiles": "CC(C)[C@@H](C)/C=C/[C@@H](C)[C@H]1CC[C@@H]2[C@]1(C)CC=C1[C@]23C=C[C@]2(C[C@@H](O)CC[C@]12C)OO3", "values": [{"measurement": "IC50", "setting": "MCF7", "result": 9.18, "unit": "µg/mL"}, {"measurement": "IC50", "setting": "MDA-MB-231", "result": 7.32, "unit": "µg/mL"}, {"measurement": "IC50", "setting": "[1]", "result": 15.5, "unit": "µg/mL"}, {"measurement": "IC50", "setting": "HepG2", "result": 7.73, "unit": "µg/mL"}, {"measurement": "IC50", "setting": "A549", "result": 10.4, "unit": "µg/mL"}]}, {"smiles": "C[C@@H]1CC[C@@]2(OC1)O[C@H]1C[C@H]3[C@@H]4CCC5=CC(=O)CC[C@]5(C)[C@H]4CC[C@]3(C)[C@H]1[C@@H]2C", "note": "[DIOSGENONE]", "values": [{"measurement": "IC50", "setting": "MCF7", "result": "> 20", "unit": "µg/mL"}, {"measurement": "IC50", "setting": "MDA-MB-231", "result": "> 20", "unit": "µg/mL"}, {"measurement": "IC50", "setting": "[1]", "result": "> 20", "unit": "µg/mL"}, {"measurement": "IC50", "setting": "HepG2", "result": 13.4, "unit": "µg/mL"}, {"measurement": "IC50", "setting": "A549", "result": "> 20", "unit": "µg/mL"}]}, {"smiles": "C[C@@H]1CC[C@@]2(OC1)O[C@H]1C[C@H]3[C@@H]4CC=C5C[C@@H](O)CC[C@]5(C)[C@H]4CC[C@]3(C)[C@H]1[C@@H]2C", "note": "[DISOGENIN]", "values": [{"measurement": "IC50", "setting": "MCF7", "result": "> 20", "unit": "µg/mL"}, {"measurement": "IC50", "setting": "MDA-MB-231", "result": "> 20", "unit": "µg/mL"}, {"measurement": "IC50", "setting": "[1]", "result": "> 20", "unit": "µg/mL"}, {"measurement": "IC50", "setting": "HepG2", "result": "> 20", "unit": "µg/mL"}, {"measurement": "IC50", "setting": "A549", "result": "> 20", "unit": "µg/mL"}]}, {"smiles": "COc1cccc2c1C(=O)c1c(O)c3c(c(O)c1C2=O)C[C@@](O)(C(=O)CO)C[C@@H]3O[C@H]1C[C@H](N)[C@H](O)[C@H](C)O1", "note": "[DOXORUBICIN]", "values": [{"measurement": "IC50", "setting": "MCF7", "result": 0.29, "unit": "µg/mL"}, {"measurement": "IC50", "setting": "MDA-MB-231", "result": 0.38, "unit": "µg/mL"}, {"measurement": "IC50", "setting": "[1]", "result": 0.24, "unit": "µg/mL"}, {"measurement": "IC50", "setting": "HepG2", "result": 0.4, "unit": "µg/mL"}]}, {"smiles": "CC(C)[C@@H](C)/C=C/[C@@H](C)[C@H]1CC[C@@H]2[C@]1(C)CC[C@H]1[C@]23C=C[C@]2(C[C@@H](O)CC[C@]12C)OO3", "note": "[ERGOSTEROL PEROXIDE]", "values": [{"measurement": "IC50", "setting": "MCF7", "result": 13.4, "unit": "µg/mL"}, {"measurement": "IC50", "setting": "MDA-MB-231", "result": 16.7, "unit": "µg/mL"}, {"measurement": "IC50", "setting": "[1]", "result": 16.5, "unit": "µg/mL"}, {"measurement": "IC50", "setting": "HepG2", "result": 15.3, "unit": "µg/mL"}, {"measurement": "IC50", "setting": "A549", "result": 14.3, "unit": "µg/mL"}]}, {"smiles": "COc1cc2ccc(=O)oc2cc1O", "note": "[SCOPOLETIN]", "values": [{"measurement": "IC50", "setting": "MCF7", "result": 17.1, "unit": "µg/mL"}, {"measurement": "IC50", "setting": "MDA-MB-231", "result": "> 20", "unit": "µg/mL"}, {"measurement": "IC50", "setting": "[1]", "result": "> 13.2", "unit": "µg/mL"}, {"measurement": "IC50", "setting": "HepG2", "result": "> 20", "unit": "µg/mL"}, {"measurement": "IC50", "setting": "A549", "result": "> 20", "unit": "µg/mL"}]}, {"smiles": "COc1cc([C@H]2OC[C@H]3[C@@H]2CO[C@@H]3c2cc(OC)c(O)c(OC)c2)cc(OC)c1O", "note": "[SYRINGARESINOL]", "values": [{"measurement": "IC50", "setting": "MCF7", "result": "> 20", "unit": "µg/mL"}, {"measurement": "IC50", "setting": "MDA-MB-231", "result": "> 20", "unit": "µg/mL"}, {"measurement": "IC50", "setting": "[1]", "result": 15.7, "unit": "µg/mL"}, {"measurement": "IC50", "setting": "HepG2", "result": "> 20", "unit": "µg/mL"}, {"measurement": "IC50", "setting": "A549", "result": "> 20", "unit": "µg/mL"}]}]}
